Among the test systems are SN12C; CCRF-CEM; NCI-H23; UACC-257; A549; UO-31; SK-MEL-28; SNB-19; EKVX; SK-MEL-5; HCC 2998; NCI-H522; HCT-15; KM12; K562; SK-MEL-2; LOX IMVI; HT-29; SF-268; NCI-H460.
What all share (assay): growth of human tumour cells (NCI), 48 h

These results are taken from ChEMBL document CHEMBL1201862, “PubChem BioAssay data set” (2004).

Structures are written as SMILES.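 Five compound concentrations were applied to cells in 96-well plates for 48 hours; endpoints were derived by simple linear interpolation of the resulting dose-response curve. The concentration for 50% growth inhibition is given as GI50.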 Activity calls are given as the source filed them. Cut-off read from the data, not from the text of the source: active = GI50 up to about 1.1 µM and inactive = higher. A value given as a limit tells only on which side of the number the result lay.

Take `COc1ccc(C2COc3cc(O)c(O)cc3C2)cc1` (configuration not stated): the GI50 in the test on SN12C is 30.1 µM (inactive); in the test with CCRF-CEM, 2.86 µM (inactive); with NCI-H23, 17.7 µM (inactive); with UACC-257, 27.4 µM (inactive); in the test on A549 it was 48.8 µM (inactive); in the test with UO-31, 56.2 µM (inactive). The GI50 was 10.7 µM (inactive) in the test with SK-MEL-28; 24.8 µM (inactive) with SNB-19; 14.1 µM (inactive) in the test on EKVX; 24.4 µM (inactive) with SK-MEL-5; 21.4 µM (inactive) with HCC 2998; 4.84 µM (inactive) with NCI-H522. In addition, the GI50 in the test on HCT-15 was 10.2 µM; in the test on KM12, 39.7 µM (inactive); in the test on K562, 9.08 µM (inactive); in the test with SK-MEL-2, 54.6 µM (inactive); in the test on LOX IMVI, 32.3 µM (inactive); with HT-29, 40.7 µM (inactive). The GI50 is 14.8 µM (inactive) with SF-268 and 24 µM (inactive) with NCI-H460.
Take `C=C1CC(C)(COc2ccc3c(C)cc(=O)oc3c2)OC1=O` (configuration not stated): the GI50 is 3.86 µM (inactive) with SN12C; 0.229 µM (active) in the test with CCRF-CEM; 1.57 µM (inactive) in the test on NCI-H23; 1.25 µM (inactive) in the test with UACC-257; 8.79 µM (inactive) in the test on A549; 6.7 µM (inactive) in the test with UO-31. Besides, the GI50 was 2.72 µM (inactive) in the test with SK-MEL-28; 13.7 µM (inactive) with SNB-19; 4.7 µM (inactive) in the test on EKVX; 1.31 µM (inactive) with SK-MEL-5; 3.5 µM (inactive) with HCC 2998; 0.276 µM (active) in the test with NCI-H522. The GI50 in the test on HCT-15 was 1.47 µM; in the test with KM12 it was 3.66 µM (inactive); in the test with K562 it was 0.313 µM (active); with SK-MEL-2, 1.65 µM (inactive); in the test on LOX IMVI, 1.59 µM (inactive); with HT-29, 1.03 µM (active). Moreover, the GI50 in the test with SF-268 was 4.41 µM (inactive); in the test on NCI-H460 it was 5.3 µM (inactive).
In the case of `Cc1ccc([N+](=O)[O-])cc1NC(=O)C(=O)C(C(=O)c1ccccc1F)C1OC(=O)c2ccccc21` (configuration not stated), the GI50 with SN12C is 33.8 µM (inactive); with CCRF-CEM it was 26.8 µM (inactive); in the test with NCI-H23 it was 38.5 µM (inactive); with UACC-257 it was > 100 µM (inactive); in the test on A549, 50.1 µM (inactive); in the test on UO-31, 49.1 µM (inactive). Also, the GI50 with SK-MEL-28 is 36.4 µM (inactive); in the test with SNB-19, 15.3 µM (inactive); in the test on EKVX, 46 µM (inactive); with SK-MEL-5 it was 63.1 µM (inactive); in the test with HCC 2998, 29.7 µM (inactive); in the test on NCI-H522, 20.3 µM (inactive). Moreover, the GI50 in the test on HCT-15 was 26.7 µM; in the test on KM12 it was 52.5 µM (inactive); in the test on K562, 32.7 µM (inactive); with SK-MEL-2, 25.9 µM (inactive); with LOX IMVI, 27.5 µM (inactive); with HT-29, 38.5 µM (inactive). Besides, the GI50 in the test on SF-268 was 25.5 µM (inactive); in the test with NCI-H460, 38.9 µM (inactive).
As for `CN1C(=O)CN=C(c2ccccc2F)c2cc(N=C=S)ccc21`, the GI50 with SN12C is 96.2 µM (inactive); in the test on CCRF-CEM it was 19.2 µM (inactive); in the test on NCI-H23, 62.4 µM (inactive); in the test on UACC-257 it was 43.5 µM (inactive); in the test with A549, 33.9 µM (inactive); with UO-31 it was 17.1 µM (inactive). The GI50 with SNB-19 was 60 µM (inactive); in the test on EKVX it was > 100 µM (inactive); in the test on HCC 2998 it was 50.8 µM (inactive); in the test on NCI-H522 it was 0.665 µM (active); in the test on HCT-15, 35.8 µM; in the test on KM12, 44.6 µM (inactive). Besides, the GI50 with SK-MEL-2 is 92.3 µM (inactive); in the test on LOX IMVI, 41.4 µM (inactive); with HT-29 it was 34.2 µM (inactive); with SF-268, 67 µM (inactive); in the test with NCI-H460, 36.6 µM (inactive).
Take `COC1/C=C/C(C)C(C(C)C(OC)C(C)CCC(=O)C(C)C(C/C=C/N(C)C=O)OC)OC(=O)/C=C/C=C(\C)CC(OC)CC2=CC(=O)O[C@H](C2)C(C)C(OC)CC(OC)/C=C/C(C)C(OC)C1` (some centres not stated): the GI50 in the test on SN12C was 0.014 µM (active); with CCRF-CEM, < 0.005 µM (active); in the test with NCI-H23 it was 0.0521 µM (active); with UACC-257 it was 0.00819 µM (active); with A549, 0.0288 µM (active); in the test on UO-31, 0.0125 µM (active). For the same molecule, the GI50 is 0.00875 µM (active) in the test on SK-MEL-28; 0.0149 µM (active) with SNB-19; 0.084 µM (active) with EKVX; 0.00518 µM (active) in the test on SK-MEL-5; 0.0133 µM (active) in the test on HCC 2998; 0.00588 µM (active) in the test on NCI-H522. Moreover, the GI50 is less than 0.005 µM in the test with HCT-15; 0.0094 µM (active) with KM12; 0.00733 µM (active) with SK-MEL-2; < 0.005 µM (active) in the test on LOX IMVI; < 0.005 µM (active) in the test with HT-29; 0.0336 µM (active) in the test on SF-268. Moreover, in the test on NCI-H460, the GI50 is < 0.005 µM (active).
Consider `C=CCNC(=S)N/N=C1\C(=O)Nc2ccc([N+](=O)[O-])cc21`, for which the GI50 in the test on SN12C was 35.5 µM (inactive); in the test on CCRF-CEM, 5.13 µM (inactive); with NCI-H23, 38.6 µM (inactive); in the test on UACC-257 it was 71 µM (inactive); with A549, 34.2 µM (inactive); in the test with UO-31, 31.2 µM (inactive). Also, the GI50 is > 100 µM (inactive) in the test with SK-MEL-28; 55.7 µM (inactive) in the test on SNB-19; 42.2 µM (inactive) in the test on EKVX; 30.1 µM (inactive) with SK-MEL-5; 23.3 µM (inactive) in the test with HCC 2998; 64.1 µM (inactive) in the test on NCI-H522. Moreover, the GI50 in the test on HCT-15 is 7.57 µM; in the test with KM12, 46.6 µM (inactive); in the test with K562, 32.1 µM (inactive); in the test on SK-MEL-2 it was > 100 µM (inactive); in the test on LOX IMVI, 81.8 µM (inactive); in the test on HT-29, 68.7 µM (inactive). In addition, the values for the GI50 with SF-268 and in the test on NCI-H460 were 57 µM (inactive) and 16.6 µM (inactive), respectively.
`CN(C)c1ccc(C2SCC(=O)N2NS(=O)(=O)c2cccc(C(=O)O)c2)cc1` (configuration not stated): the GI50 with SN12C was > 100 µM (inactive); in the test with CCRF-CEM, 0.731 µM (active); in the test with NCI-H23 it was > 100 µM (inactive); in the test with UACC-257 it was > 100 µM (inactive); in the test on A549, 99.3 µM (inactive); with UO-31 it was 72.8 µM (inactive). In addition, the GI50 in the test with SK-MEL-28 was 97.7 µM (inactive); in the test on SNB-19, > 100 µM (inactive); in the test with EKVX, > 100 µM (inactive); with SK-MEL-5, > 100 µM (inactive); in the test with HCC 2998, > 100 µM (inactive); in the test with NCI-H522 it was 28.2 µM (inactive). Moreover, the GI50 with HCT-15 is 76.9 µM; with KM12 it was > 100 µM (inactive); with K562 it was 35.6 µM (inactive); with SK-MEL-2, > 100 µM (inactive); in the test on LOX IMVI, > 100 µM (inactive); in the test with HT-29 it was > 100 µM (inactive). Moreover, the GI50 in the test with SF-268 is > 100 µM (inactive); with NCI-H460 it was 76.2 µM (inactive).
`O=c1c(-c2ccccc2)c(SCCCN2CCCCC2)n(-c2ccccc2)c(=S)n1-c1ccccc1`: the GI50 is 15.7 µM (inactive) in the test on CCRF-CEM; 19 µM (inactive) in the test on NCI-H23; 16.8 µM (inactive) in the test on UACC-257; 16.9 µM (inactive) in the test with SK-MEL-28; > 100 µM (inactive) in the test with EKVX; 16 µM (inactive) in the test with SK-MEL-5. Also, the GI50 was 3.83 µM (inactive) in the test on HCC 2998; 22.4 µM (inactive) with NCI-H522; 17.3 µM with HCT-15; 19.4 µM (inactive) with KM12; 14.1 µM (inactive) with K562; 15.9 µM (inactive) with SK-MEL-2. In addition, the GI50 is 16.3 µM (inactive) in the test on LOX IMVI and 16.4 µM (inactive) with NCI-H460.
On to `CC1(C)OP(=O)(O)CC1=O`, for which the GI50 with SN12C, in the test on NCI-H23, in the test on UACC-257, in the test on A549, with UO-31 and in the test with SK-MEL-28 was > 100 µM (inactive) in each case. The GI50 in the test with SNB-19 was > 100 µM (inactive); in the test with EKVX, > 100 µM (inactive); in the test on SK-MEL-5 it was > 100 µM (inactive); in the test on HCC 2998, > 100 µM (inactive); with NCI-H522, > 100 µM (inactive); in the test with HCT-15 it was more than 100 µM. The GI50 with KM12, in the test with K562, in the test on SK-MEL-2, in the test on LOX IMVI, in the test with HT-29 and in the test with SF-268 was > 100 µM (inactive) each time. Further, the GI50 in the test on NCI-H460 is > 100 µM (inactive).
Take `OCC1OC(n2ccc3cnccc32)CC1O` (configuration not stated): the GI50 in the test on SN12C, with CCRF-CEM, in the test with NCI-H23, in the test with UACC-257, with A549 and with UO-31 was > 100 µM (inactive) throughout. The GI50 in the test with SK-MEL-28, in the test with SNB-19, with EKVX, in the test with SK-MEL-5, with HCC 2998 and in the test on NCI-H522 was > 100 µM (inactive) each time. The GI50 in the test with HCT-15 was more than 100 µM; in the test with KM12, > 100 µM (inactive); in the test on K562, > 100 µM (inactive); with SK-MEL-2 it was > 100 µM (inactive); in the test with LOX IMVI, > 100 µM (inactive); in the test on HT-29, > 100 µM (inactive). For the same molecule, the GI50 in the test on NCI-H460 was > 100 µM (inactive).
In the case of `FC(F)(F)C(C1=NC(C(F)(F)F)(C(F)(F)F)N=C(N2CCOCC2)O1)C(F)(F)F`, the GI50 is 11.1 µM (inactive) in the test with SN12C; 4.71 µM (inactive) in the test on CCRF-CEM; > 10 µM (inactive) in the test with NCI-H23; 20.8 µM (inactive) in the test with UACC-257; 18.5 µM (inactive) with A549; 25.4 µM (inactive) in the test on UO-31. The GI50 in the test on SK-MEL-28 was 20.1 µM (inactive); with SNB-19 it was 25.9 µM (inactive); in the test on EKVX, 17.1 µM (inactive); with SK-MEL-5, 11.9 µM (inactive); in the test on HCC 2998, 41.5 µM (inactive); with NCI-H522, 20.2 µM (inactive). Besides, the GI50 in the test on HCT-15 was 26.1 µM; with KM12 it was 39.3 µM (inactive); in the test with SK-MEL-2, 22.2 µM (inactive); with LOX IMVI, 17.8 µM (inactive); in the test with HT-29, 18.7 µM (inactive); with SF-268, 36.1 µM (inactive). Besides, the GI50 in the test on NCI-H460 is 29 µM (inactive).
